Assays:
winter oilseed rape = test: Field trial: grain yield effects on winter oilseed rape, sequential application of isoxadifen; type: in vivo
Source text: (§1) The trials have been carried out under natural field conditions (plot trials, 10 square meter plots, 2-4 replications).
(§2) The applications have been done with seed treatment, pre- or post-emergence treatments straight (alone, 1 application) or sequential treatments e.g. seed treatment followed by pre-emergence and/or post-emergence spray applications. The pre- or post-emergence applications were made with spray applications using 100-300 l/water per hectare. The growth stage of the crops species at the time of application are reported in the result tables. The dose rates of the herbicidal active ingredients applied alone respective in sequential application are also described in the result tables.
(§3) The assessments have been done via visual ratings (0-100% scale) or counting. The trials have been harvested after crops reached the full maturity. After the harvest the total weight of kernels/seeds/beets per plot was measured. The results are reported as means over 2-4 replications. The time between applications and assessments or countings/harvest are described in the result tables as well.
(§4) The active ingredients have been applied to the untreated, dry seeds together with a carrier. After a short period of time to let the seeds dry, they were ready to be sown in the pot or field using standard equipments.

sugarbeets [1] = test: Field trial: emergence of sugarbeets, seed treatment with isoxadifen; type: in vivo, sugarbeet; details: seed treatment 0.015 mg ai/seed
Source text: as §1, §2, §3, §4

spring wheat [2] = test: Field trial: grain yield effects on spring wheat, postemergence treatment with isoxadifen-ethyl; type: in vivo; details: 74 days after application
Source text: as §1, §2, §3

corn = test: Field trial: grain yield effect on corn, sequential treatment with isoxadifen-ethyl; type: in vivo
Source text: as §1, §2, §3, §4

winter wheat = test: Field trial: grain yield effects on winter wheat, postemergence treatment with isoxadifen-ethyl; type: in vivo; details: 84 days after application
Source text: as §1, §2, §3

spring wheat [3] = test: Field trial: grain yield effects on spring wheat, seed treatment with isoxadifen-ethyl; type: in vivo; details: 158 days after application
Source text: as §1, §2, §3, §4

sugarbeets [4] = test: Field trial: sugar yield of sugarbeets, sequential application; type: in vivo, sugarbeet
Source text: as §1, §2, §3, §4

sugarbeet = test: Field trial: yield effects on sugarbeet, sequential application of isoxadifen-ethyl; type: in vivo
Source text: as §1, §2, §3, §4

[5] = system: spring oilseed rape (canola); test: Field trial: grain yield effects on spring oilseed rape (canola), postemergence treatment with IDF-Et + TBC; type: in vivo; details: 92 days after application
Source text: The trials have been carried out under natural field conditions (plot trials, 10 square meter plots, 2-4 replications). The applications have been done with seed treatment, pre- or post-emergence treatments straight (alone, 1 application) or sequential treatments e.g. seed treatment followed by pre-emergence and/or post-emergence spray applications. The pre- or post-emergence applications were made with spray applications using 100-300 l/water per hectare. The growth stage of the crops species at the time of application are reported in the result tables. The dose rates of the herbicidal active ingredients applied alone respective in sequential application are also described in the result tables. The assessments have been done via visual ratings (0-100% scale) or counting. The trials have been harvested after crops reached the full maturity. After the harvest the total weight of kernels/seeds/beets per plot was measured. The results are reported as means over 2-4 replications. The time between applications and assessments or countings/harvest are described in the result tables as well.

[6] = grain yield relative to UTC (100%), 100 g ai/ha post-emergence
[7] = grain yield, 100 g ai/ha post-emergence

Structure (SMILES): O=C(O)C1=NOC(c2ccccc2)(c2ccccc2)C1 [IDF, 5,5-diphenyl-2-isoxazolinecarboxylic acid]
- Yield (winter oilseed rape; 3 g ai/kg seed fb 3 × 50 g ai/ha post (4-6 leaves, stem elongation, beginning of flowering), grain yield at harvest, 102 days after application): 2.63 t/ha
- Relative (winter oilseed rape; grain yield relative to UTC (100%), 3 g ai/kg seed fb 3 × 50 g ai/ha post): 105%
- Difference(%) vs. UTC (winter oilseed rape; grain yield, 3 g ai/kg seed fb 3 × 50 g ai/ha post): +5%
- plants/18 row meters (sugarbeets [1]; emergence of sugarbeets, counting 28 days after planting): 74 plants/18 row meters
- Relative (sugarbeets [1]; emergence relative to UTC (100%), sugarbeets, 28 days after planting): 113.8%
- Difference(%) vs. UTC (sugarbeets [1]; emergence, sugarbeets, 28 days after planting): +13.8%

Structure (SMILES): CCOC(=O)C1=NOC(c2ccccc2)(c2ccccc2)C1 [IDF-Et, ethyl 5,5-diphenyl-2-isoxazolinecarboxylate]
- Yield (spring wheat [2]; 100 g ai/ha post-emergence spring, flag leaf/beginning of ear heading, grain yield at harvest): 7.67 t/ha
- Relative % (spring wheat [2]; [6]): 113.2%
- Difference(%) vs. UTC (spring wheat [2]; [7]): +13.2%
- Yield (corn; 0.5 g ai/kg seed fb 3 × 50 g ai/ha post (2-4, 6-8, 10-12 leaves), grain yield at harvest, 72 days after application): 10.80 t/ha
- Relative (corn; grain yield relative to UTC (100%), 0.5 g ai/kg seed fb 3 × 50 g ai/ha post): 124%
- Difference(%) vs. UTC (corn; grain yield, 0.5 g ai/kg seed fb 3 × 50 g ai/ha post): +24%
- Yield (winter wheat; 100 g ai/ha post-emergence spring, beginning of stem elongation, grain yield at harvest): 8.09 t/ha
- Relative % (winter wheat; [6]): 109.0%
- Difference(%) vs. UTC (winter wheat; [7]): +9%
- Relative % (spring wheat [3]; grain yield relative to UTC (100%), seed treatment 0.5 g ai/kg seed): 108.7%
- Difference(%) vs. UTC (spring wheat [3]; grain yield, seed treatment 0.5 g ai/kg seed): +8.7%
- Yield (spring wheat [3]; seed treatment 0.5 g ai/kg seed (prior planting), grain yield at harvest): 6.58 t/ha
- Sugar Yield (sugarbeets [4]; 0.015 mg ai/seed fb 3 × 50 g ai/ha post (2-4, 6-8, 10-12 leaves), sugar yield by weight at harvest, 162 days after application): 6.19 t/ha
- Relative (sugarbeets [4]; sugar yield relative to UTC (100%), 0.015 mg ai/seed fb 3 × 50 g ai/ha post): 108.6%
- Difference(%) vs. UTC (sugarbeets [4]; sugar yield, 0.015 mg ai/seed fb 3 × 50 g ai/ha post): +8.6%
- Yield (sugarbeet; 0.015 mg ai/seed fb 3 × 50 g ai/ha post (2-4, 6-8, 10-12 leaves), yield of beets by weight at harvest, 162 days after application): 65.3 t/ha
- Relative (sugarbeet; beet yield relative to UTC (100%), 0.015 mg ai/seed fb 3 × 50 g ai/ha post): 111.2%
- Difference(%) vs. UTC (sugarbeet; beet yield, 0.015 mg ai/seed fb 3 × 50 g ai/ha post): +11.2%

Structure (SMILES): CC(C)(C)C(O)(CCc1ccc(Cl)cc1)Cn1cncn1 (stereo not drawn) [TBC, tebuconazole]
- Relative % ([5]; grain yield relative to UTC (100%), canola, TBC 150, IDF-Et 100 g ai/ha): 101.8%
- Difference(%) vs. UTC ([5]; grain yield, canola, TBC 150, IDF-Et 100 g ai/ha): +1.8%
- Yield ([5]; spring oilseed rape (canola), TBC 150 g ai/ha, IDF-Et 100 g ai/ha, post-emergence spring, beginning of flowering, grain yield at harvest): 3.98 t/ha

— patent publication US20140378306A1, “USE OF 5-PHENYL- OR 5-BENZYL-2 ISOXAZOLINE-3 CARBOXYLATES FOR IMPROVING PLANT YIELD” (Bayer Intellectual Property GmbH, priority 2011, published 2014)
